Experimental data from patent US11136291B2, “Antifungal compounds and uses thereof” (Dana-Farber Cancer Institute, Inc., priority 2016, dated 2021).
Converted amounts (≈) assume the structure as drawn.

How the values were obtained:
[1] = tested on: PDRE-dependent luciferase gene transcription; assay type: cell-based, Saccharomyces cerevisiae; details: 40 μM ketoconazole; for Luciferase activity (5 μM + keto) (% DMSO + keto): 5 μM compound; for Luciferase activity (50 μM + keto) (% DMSO + keto): 50 μM compound
Candida glabrata DSY562 = test: Broth dilution MIC; details: Nakaseomyces glabratus
Method: (§1) Antifungal susceptibility testing was carried out using broth dilution assays which examined effects of two-fold dilutions of compounds on cellular growth. The minimum inhibitory concentration (MIC) was defined as the drug concentration at which the optical density was equal to or decreased more than 50% from that of the drug-free culture.

Candida albicans DSY2621 = test: Broth dilution MIC
Method: as §1

Candida albicans SC5314 = test: Broth dilution MIC
Method: as §1

[2] = tested on: CgCDR1 transcription (CgPdr1 target); test: Transcription assay, quantitative real-time PCR of CgPdr1 target genes; assay type: cell-based, Candida glabrata
[3] = tested on: Candida tropicalis DSY472; test: Broth dilution MIC; details: ATCC75
Method: as §1

[4] = tested on: C. glabrata CgPDR1 wild-type and gain-of-function mutant strains; test: Spot plating on gradient plates with azole; assay type: cell-based, Candida glabrata
[5] = tested on: Candida parapsilosis DSY473; test: Broth dilution MIC; details: ATCC22019
Method: as §1

CgGal11A KIX domain = molecular target: T1, CgGal11A KIX domain (Candida glabrata, UniProt Q6FRS9); test: Fluorescence polarization (FP) binding/competition assay, CgPdr1 AD30 with CgGal11A KIX; details: compared with iKIX1
T1 construct: other: compared with iKIX1; other: GST-CgGal11A KIX 3 μM, 30 nM FITC-CgPdr1 AD30; Kd of CgPdr1 AD30 for CgGal11A KIX domain; other: FP titration, 30 nM FITC-CgPdr1 AD30; Kd of the CgPdr1 AD for the CgGal11A KIX domain; apparent Ki; fused on or other part: N-terminal His6-GST tag
T1 sequence (Q6FRS9 whole entry, looked up, the tested form may be a part): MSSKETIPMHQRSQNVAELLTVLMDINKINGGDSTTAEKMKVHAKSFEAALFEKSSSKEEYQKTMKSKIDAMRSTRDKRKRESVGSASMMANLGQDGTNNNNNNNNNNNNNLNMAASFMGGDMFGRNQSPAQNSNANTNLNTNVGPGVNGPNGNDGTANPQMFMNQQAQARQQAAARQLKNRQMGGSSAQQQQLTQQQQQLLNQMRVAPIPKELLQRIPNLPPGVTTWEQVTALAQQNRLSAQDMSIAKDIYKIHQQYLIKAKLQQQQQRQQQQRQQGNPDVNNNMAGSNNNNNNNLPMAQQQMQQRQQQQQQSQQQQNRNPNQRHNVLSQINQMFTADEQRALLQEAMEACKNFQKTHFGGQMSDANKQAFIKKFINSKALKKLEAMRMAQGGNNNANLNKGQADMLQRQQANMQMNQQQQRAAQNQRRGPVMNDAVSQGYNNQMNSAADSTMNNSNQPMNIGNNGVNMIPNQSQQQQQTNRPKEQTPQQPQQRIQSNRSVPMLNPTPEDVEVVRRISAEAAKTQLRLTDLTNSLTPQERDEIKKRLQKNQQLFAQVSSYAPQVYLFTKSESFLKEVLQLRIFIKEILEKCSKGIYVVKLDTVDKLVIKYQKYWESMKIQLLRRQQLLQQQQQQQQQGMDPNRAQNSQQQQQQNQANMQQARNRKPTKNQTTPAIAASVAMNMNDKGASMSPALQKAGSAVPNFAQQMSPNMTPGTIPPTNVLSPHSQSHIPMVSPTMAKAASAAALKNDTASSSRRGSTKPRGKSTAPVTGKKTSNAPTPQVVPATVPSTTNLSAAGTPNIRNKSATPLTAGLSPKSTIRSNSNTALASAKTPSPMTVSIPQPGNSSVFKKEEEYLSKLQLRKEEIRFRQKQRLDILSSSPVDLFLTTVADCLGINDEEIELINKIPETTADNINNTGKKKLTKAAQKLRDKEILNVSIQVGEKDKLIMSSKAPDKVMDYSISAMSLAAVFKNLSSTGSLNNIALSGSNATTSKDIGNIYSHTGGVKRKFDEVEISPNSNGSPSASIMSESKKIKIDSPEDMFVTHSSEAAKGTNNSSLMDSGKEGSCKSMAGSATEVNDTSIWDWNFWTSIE
Method: A fluorescein-tagged 30 amino acid C-terminal activation domain of CgPdr1 (FITC-[…] (SEQ ID NO: 1)) CgPdr1 AD30 was purchased as a synthetic peptide from Pepide2.0. The CgGal11A KIX domain was expressed as a His6-GST fusion protein and purified by affinity chromatography with Ni-NTA resin (Qiagen) and size exclusion chromatography (Sephadex 75, Pharmacia). […] For small molecule screening, fluorescein-CgPdr1 AD30 was held at a concentration of 30 nM and the GST-tagged CgGal11A KIX was at a concentration of 1 μM (above the Kd). The screen was carried out in duplicate and the volume in each well was 25 μL.
To measure the dissociation constant (Kd) of CgPdr1 AD30, FITC labeled CgPdr1 AD30 was held at a concentration of 30 nM and the GST-tagged CgGal11A KIX was prepared with concentrations ranging from 0 to 300 μM. The IC50 for iKIX-1 binding was measured with GST-tagged CgGal11A KIX held at a constant 3 μM concentration, iKIX-1 was titrated from 0 to 1000 μM and 30 nM FITC-labeled CgPdr1 AD30 was added subsequently with an HP D300 digital dispenser (Tecan Group. Maennerdorf, Switzerland). All experiments were carried out in duplicate and the s.d. is reported at each point on the plot.
The FP titration curve of the CgPdr1 AD30 was fitted to GraphPad Prisms (La Jolla, Calif., USA) One site-total binding equation (equation 1). […]

Candida krusei DSY471 = test: Broth dilution MIC; details: Pichia kudriavzevii, ATCC6258
Method: as §1

[6] = tested on: Saccharomyces cerevisiae DSY2094; test: Broth dilution MIC
Method: as §1

Candida glabrata DSY565 = test: Broth dilution MIC; details: Nakaseomyces glabratus
Method: as §1

[7] = tested on: C. glabrata PDR1 wild-type or PDR1^L280F strains; test: Galleria mellonella survival assay; assay type: in vivo; details: […]
C. glabrata [8] = assay type: in vivo, mouse; details: single agent 100 mg/kg/day i.p.
C. glabrata [9] = test: Mouse disseminated fungal burden model; assay type: in vivo; details: mouse, in vivo
[10] = tested on: C. glabrata adherence to CHO-Lec2 cells; test: Yeast adherence to epithelial CHO-Lec2 cells; details: PDR1^L280F mutant, 30 μM iKIX1 or 40 μM ketoconazole

| SMILES | Luciferase activity (5 μM + keto) (% DMSO + keto) [1] [% DMSO + keto] | Luciferase activity (50 μM + keto) (% DMSO + keto) [1] [% DMSO + keto] | MIC (Candida glabrata DSY562) [µM] | MIC (Candida albicans DSY2621) [µM] | MIC (Candida albicans SC5314) [µM] | MIC [3] [µM] | MIC [5] [µM] | MIC (Candida krusei DSY471) [µM] | MIC [6] [µM] | MIC (Candida glabrata DSY565) [µM] | further results |
| --- | --- | --- | --- | --- | --- | --- | --- | --- | --- | --- | --- |
| N#CC(C(=O)NNC(=S)Nc1ccc(Cl)c(Cl)c1)c1ccccc1 (stereo not drawn) | 86 | 38 | – | – | – | – | – | – | – | – | – |
| COc1cc(NC(=S)NNC(=O)CC#N)cc(Cl)c1Cl | 52 | 26 | – | – | – | – | – | – | – | – | – |
| N#CCC(=O)NNC(=S)NCc1ccccc1 [Compound A02, reference compound] | – | – | > 100 | > 100 | > 100 | > 100 | > 100 | > 100 | > 100 | > 100 | ketoconazole-induced CgPdr1 target gene (CgCDR1) transcription (in words) ([2]; CgPDR1 wild-type strain (SFY114), pre-treatment then 40 μM ketoconazole): abolishes activity; synergistic C. glabrata cell growth inhibition with azole antifungal agents [4]: abolishes activity; IC50 in the FP assay (in words) (CgGal11A KIX domain): increases the IC50; ketoconazole-induced luciferase activity (in words) [1]: abolishes activity |
| N#CCC(=O)NNC(=S)Nc1ccc(Cl)c(F)c1 [Compound A03, N-(4-Chloro-3-fluorophenyl)-2-(2-cyanoacetyl)hydrazinecarbothoamide] | – | – | 12.5 (≈ 3.58 µg/mL) | 25 (≈ 7.17 µg/mL) | 25 (≈ 7.17 µg/mL) | 12.5 (≈ 3.58 µg/mL) | 50 (≈ 14.3 µg/mL) | 12.5 (≈ 3.58 µg/mL) | 12.5 (≈ 3.58 µg/mL) | 25 (≈ 7.17 µg/mL) | – |
| N#CCC(=O)NNC(=S)Nc1ccc(C(F)(F)F)c(Cl)c1 [Compound A07, N-(3-Chloro-4-(trifluoromethyl)phenyl)-2-(2-cyanoacetyl) hydrazinecarbothioamide] | – | – | 3.12 (≈ 1.05 µg/mL) | 3.25 (≈ 1.09 µg/mL) | 3.25 (≈ 1.09 µg/mL) | 3.25 (≈ 1.09 µg/mL) | 6.25 (≈ 2.1 µg/mL) | 6.25 (≈ 2.1 µg/mL) | 3.12 (≈ 1.05 µg/mL) | 3.12 (≈ 1.05 µg/mL) | – |
| N#CCC(=O)NNC(=S)Nc1cc(Cl)cc(Cl)c1 [Compound A16] | – | – | 3.12 (≈ 0.947 µg/mL) | 6.25 (≈ 1.89 µg/mL) | 6.25 (≈ 1.89 µg/mL) | 3.25 (≈ 0.985 µg/mL) | 12.5 (≈ 3.79 µg/mL) | 3.25 (≈ 0.985 µg/mL) | 3.12 (≈ 0.947 µg/mL) | 6.25 (≈ 1.89 µg/mL) | – |
| N#CC1(C(=O)NNC(=S)Nc2ccc(Cl)c(Cl)c2)CC1 [Compound A18, 2-(1-Cyanocyclopropanecarbonyl)-N-(3,4-dichlorophenyl)hydrazinecarbothioamide] | – | – | 6.25 (≈ 2.06 µg/mL) | 6.25 (≈ 2.06 µg/mL) | 6.25 (≈ 2.06 µg/mL) | 12.5 (≈ 4.12 µg/mL) | 25 (≈ 8.23 µg/mL) | 6.25 (≈ 2.06 µg/mL) | 12.5 (≈ 4.12 µg/mL) | 12.5 (≈ 4.12 µg/mL) | – |
| N#CCC(=O)NNC(=S)Nc1cc(Cl)cc(C(F)(F)F)c1 [Compound A52-8] | – | – | 3.12 (≈ 1.05 µg/mL) | 3.12 (≈ 1.05 µg/mL) | 3.12 (≈ 1.05 µg/mL) | 3.12 (≈ 1.05 µg/mL) | 12.5 (≈ 4.21 µg/mL) | 3.12 (≈ 1.05 µg/mL) | 3.12 (≈ 1.05 µg/mL) | 6.25 (≈ 2.1 µg/mL) | – |
| N#CC1(C(=O)NNC(=S)Nc2ccc(Cl)c(Cl)c2)CCCCC1 [DFCI-1] | – | – | 6.25 (≈ 2.32 µg/mL) | 12.5 (≈ 4.64 µg/mL) | 6.25 (≈ 2.32 µg/mL) | 6.25 (≈ 2.32 µg/mL) | 12.5 (≈ 4.64 µg/mL) | 3.12 (≈ 1.16 µg/mL) | 6.25 (≈ 2.32 µg/mL) | 6.25 (≈ 2.32 µg/mL) | – |
| N#CC1(C(=O)NNC(=S)Nc2ccc(Cl)c(Cl)c2)CC1 [drawing 45] | 62 | 25 | – | – | – | – | – | – | – | – | CgCDR1 qRT-PCR (30 μM in PDR1 WT) (% DMSO + keto) ([2]; 30 μM compound, PDR1 WT, ketoconazole induced): 5 % DMSO + keto |
| N#CCC(=O)NNC(=S)Nc1ccc(Cl)c(F)c1 [drawing 46] | 54 | 30 | – | – | – | – | – | – | – | – | – |
| N#CCC(=O)NNC(=S)Nc1ccc(C(F)(F)F)c(Cl)c1 [drawing 47] | 40 | 21 | – | – | – | – | – | – | – | – | – |
| N#CCC(=O)NNC(=S)Nc1cc(Cl)cc(Cl)c1 [drawing 48] | 45 | 25 | – | – | – | – | – | – | – | – | – |
| N#CCC(=O)NNC(=S)Nc1cc(Cl)cc(C(F)(F)F)c1 [drawing 49] | 77 | 28 | – | – | – | – | – | – | – | – | – |
| N#CC1(C(=O)NNC(=S)Nc2ccc(Cl)c(Cl)c2)CCCCC1 [drawing 51] | 53 | 14 | – | – | – | – | – | – | – | – | – |
| OC(Cn1cncn1)(Cn1cncn1)c1ccc(F)cc1F [fluconazole, reference compound] | – | – | – | – | – | – | – | – | – | – | survival of G. mellonella larvae ([7]; fluconazole 50 mg/kg alone): sensitive to fluconazole alone; survival of G. mellonella larvae ([7]; single agent (fluconazole 50 mg/kg or iKIX1 25 mg/kg) vs vehicle): did not significantly increase survival; fungal load in bladder and kidney (C. glabrata [8]): significantly reduces fungal burden in the bladder and kidney; tissue fungal burden (C. glabrata [9]; 25 mg/kg): poorly reduced tissue burden; tissue fungal burden in the kidney and spleen (C. glabrata [9]; 100 mg/kg): significantly reduced tissue fungal burden |
| CC(=O)N1CCN(c2ccc(OCC3COC(Cn4ccnc4)(c4ccc(Cl)cc4Cl)O3)cc2)CC1 (stereo not drawn) [ketoconazole, reference compound] | – | – | – | – | – | – | – | – | – | – | relative adherence to epithelial cells [10]: reduce adherence; relative adherence to epithelial cells ([10]; listed as Ketoconazole): reduced relative adherence to levels comparable to a PDR1 wild-type strain |
